# Source: ChEMBL document CHEMBL1136647, “Visual detection of AMP and real-time monitoring of cyclic nucleotide phosphodiesterase (PDE) activity in neutral aqueous solution. Chemosensor-coupled assay of PDE and PDE inhibitors” (Bioorg Med Chem Lett, 2003)
# Test: Inhibitory concentration against phosphodiesterase from bovine heart
compound,measurement,value
CC(C)Cn1c(=O)n(C)c(=O)c2nc[nH]c21 [ISOBUTYLMETHYLXANTHINE],IC50,36 µM
